Measurements published in patent publication EP0123528B1, “Pharmaceutical composition for the treatment of hair loss” (Mortimer, Christopher Harry, Dr., priority 1983, dated 1984).

Legend:
common baldness in men = experiment: Unit Area Trichogram (hair density); format: in vivo; conditions: for producing hair growth in common baldness: alone: oestradiol benzoate 0.1%, medroxyprogesterone acetate 0.1%, 3,3-,5-triiodo-L-thyronine 20 pg in 3 ml of solution, or any two of the three
[1] = Semen analysis during treatment; format: in vivo, patient; conditions: after 6 months of systemic treatment
Procedure: Initially […] began treatment with medroxyprogesterone acetate starting with 5 mg daily increasing to 40 mg daily at 6 months. At this time the following hormone results were obtained: After 6 months of the same dose of systemic medroxyprogesterone acetate plus Trichogen II the following results were obtained: […]

[2] = Hormone results during treatment; format: in vivo; conditions: patient, after 6 months of systemic treatment
Procedure: Initially […] began treatment with medroxyprogesterone acetate starting with 5 mg daily increasing to 40 mg daily at 6 months.
At this time the following hormone results were obtained:
After 6 months of the same dose of systemic medroxyprogesterone acetate plus Trichogen II the following results were obtained: […]

For `N[C@H](Cc1cc(I)c(Oc2ccc(O)c(I)c2)c(I)c1)C(=O)O` [3,3-,5-triiodo-D-thyronine free acid, 3,3-,5-Triiodo-D-thyronine free acid], the “substitute for the -L-form of 3,3-,5-triiodothyronine” value (common baldness in men; topical, in any concentration) was “not an effective substitute”.

For `N[C@@H](Cc1cc(I)c(Oc2ccc(O)c(I)c2)c(I)c1)C(=O)O` [3,3-,5-triiodo-L-thyronine], the “producing hair growth in common baldness” value (common baldness in men; topical) was “not effective”.

In the case of `CC(=O)O[C@]1(C(C)=O)CC[C@H]2[C@@H]3C[C@H](C)C4=CC(=O)CC[C@]4(C)[C@H]3CC[C@@]21C` [medroxyprogesterone acetate], the “Semen analysis: Total count” value ([1]; patient (previous orchidopexy), n greater than 80 millions) is reported as 5 millions, the “Semen analysis: Motility” value ([1]; patient, n greater than 60%) is reported as 10% and the “Semen analysis: Abnormal forms” value ([1]; patient, n up to 25%) is reported as 35%. The “Meaningful hair density (hairs greater than 40 µm in diameter/cm^2), Frontal” value (common baldness in men; patient, after 6 months of systemic treatment, before treatment 215, n 232—340) was 179 (n 232—340) hairs/cm^2, the “Meaningful hair density (hairs greater than 40 µm in diameter/cm^2), Occipital” value (common baldness in men; patient, after 6 months of systemic treatment, before treatment 246, n 213—317) was 271 (n 213—317) hairs/cm^2 and the “Total hair density, Occipital” value (common baldness in men; patient, after 6 months of systemic treatment, before treatment 251, n 261—356) was 280 (n 261—356) hairs/cm^2. For the same compound, the “Total hair density, Frontal” value (common baldness in men; patient, after 6 months of systemic treatment, before treatment 263, n 256—393) was 248 (n 256—393) hairs/cm^2, the “producing hair growth in common baldness” value (common baldness in men; topical) was “not effective” and the Testosterone ([2]; 5 mg daily increasing to 40 mg daily, n 10—32) was 27.0 nmol/L. The Dihydrotestosterone ([2]; 5 to 40 mg daily, n 0.7—2.7) was 2.1 nmol/L, the SHBG ([2]; 5 to 40 mg daily, n 18—40) was 36.0 nmol/L and the Oestradiol ([2]; 5 to 40 mg daily, n 50—180) was 171.0 pmol/L. For the same compound, the “17 Alpha hydroxyprogesterone” value ([2]; n 0.6—6.0) was 10.1 nmol/L, the Androstenedione ([2]; n 3.1—10.0) was 4.9 nmol/L and the “Dehydroepiandrosterone sulphate (DHEAS)” value ([2]; n 5—9) was 9.4 µmol/L.

With `C[C@]12CC[C@@H]3c4ccc(OC(=O)c5ccccc5)cc4CC[C@H]3[C@@H]1CC[C@@H]2O` [oestradiol benzoate] the “producing hair growth in common baldness” value (common baldness in men; topical) was “not effective”.
